Consider one substance from patent US6675105B2, “Structure-based identification of candidate compounds using three dimensional structures and models of Fc receptors” (Ilexus Pty Limited, priority 1998, dated 2004).

Experiment [1] relates to monomeric human immunoglobulin IgG3. The experiment can be described thus: BIAcore binding of PsFcγRIIa to immobilized monomeric human IgG3. Particulars: two site binding fit, 22° C., HBS pH 7.4. Here is the method: (§1) Analysis of the interaction between PsFcγRIIa and monomeric immunoglobulin was performed using a BIAcorea 2000 biosensor (available from Pharmacia Biotech, Uppsala, Sweden) at about 22° C. in Hepes buffered saline (HBS; 10 mM Hepes [N-2-hydroxyethylpiperazine-N′-2-ethanesulfonic acid, available from Commonwealth Serum Laboratories, Parkville, Australia], pH 7.4, 150 mM NaCl, 3.4 mM EDTA and 0.005% Surfactant, available from Pharmacia). About 4000 to about 6000 response units (RU) of monomeric human immunoglobulin subclasses IgG1, IgG2, IgG3, and IgE (50 μg/ml of each) were covalently coupled to separate carboxymethylated dextran surface of each CM5 sensor-chips (available from BIAcore, Uppsala, Sweden) using a amine coupling kit (available from BIAcore), according to manufacturer's methods. A series of PsFcγRIIa concentrations (about 0.001 to about 1 mg/ml protein) was injected over each sensor-chip surface for about 1 minute at about 20 μl/min followed by about 3 minute dissociation phase. Following administration of the protein, the immunoglobulin surface was regenerated on each chip using a buffer containing 50 mM diethylamine pH 11.5, and 1 M NaCl. […]

Experiment [2] relates to monomeric human immunoglobulin IgG1. The experiment can be described thus: BIAcore binding of PsFcγRIIa to immobilized monomeric human IgG1. To be noted: 22° C., HBS pH 7.4. As for the experimental part:
as §1

Chain of monomeric human immunoglobulin IgG1 (P01857 99-223 limits assumed): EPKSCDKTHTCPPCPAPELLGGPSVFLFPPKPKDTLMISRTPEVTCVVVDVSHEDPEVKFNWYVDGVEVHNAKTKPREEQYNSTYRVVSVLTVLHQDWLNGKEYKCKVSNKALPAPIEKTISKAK
Chain of monomeric human immunoglobulin IgG3 (P01860 99-377 isoform P01860-1 limits assumed): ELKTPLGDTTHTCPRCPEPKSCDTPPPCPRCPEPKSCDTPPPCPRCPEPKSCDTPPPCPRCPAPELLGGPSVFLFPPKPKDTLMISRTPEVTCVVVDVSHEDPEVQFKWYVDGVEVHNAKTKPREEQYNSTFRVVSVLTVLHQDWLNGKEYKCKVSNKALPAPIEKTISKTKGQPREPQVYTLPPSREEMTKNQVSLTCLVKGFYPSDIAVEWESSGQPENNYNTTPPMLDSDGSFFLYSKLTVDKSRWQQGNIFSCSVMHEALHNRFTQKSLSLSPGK

Consider “PsFcγRIIa: recombinant soluble human FcγRIIa protein from baculovirus-infected Sf-21 cells; two species, SEQ ID NO:3 and SEQ ID NO:12”, for which the “affinity for IgG3” value in experiment [1] (at 50% of the sites) is “about 2.7×10^6 M^−1”; in experiment [1] (at the remaining 50% of the sites), “about 1.2×10^4 M^−1”. The “affinity of PsFcγRIIa for IgG1” value is “about 2.1×10^6 M^−1” in experiment [2] (at about 90% of the ligand binding sites) and “about 2.3×10^4 M^−1” in experiment [2] (at the remaining 10% of sites).
